In patent US11649237B2, “Substituted imidazo[1,5-a]pyrazines for IRE1 inhibition” (Optikira LLC, priority 2017, dated 2023):

system: XBP-1 splicing in ARPE-19 cells or apoptosis of INS-1 cells expressing mIRE-1; test: Cellular assay (XBP1 splicing assay or apoptosis assay); assay type: cell-based; settings: data are for the XBP1 splicing assay or the apoptosis assay (not specified per compound)
Experimental: ARPE-19 cells stably expressing XBP-1 (a.a. 1-376) with nano-luciferase gene sequence linked so it is in frame when XBP-1 is spliced, were cultured in F12 media, 10% FBS, 0.044% sodium bicarbonate, 150 μg/ml hygromycin B and seeded for assays at 5,000 cells in 384 well plates in culture media without hygromycin B and incubated at 37° C./5% CO2. […] After further incubation of 30 minutes thapsigargin was added (final concentration 150 nM) and then another 4 hour incubation. A NanoLuc luciferase assay (Promega) was used according to the manufacturer's instructions to detect the luciferase and luminescence measured on a luminometer (EnVision, PerkinElmer).
Doxycycline (final concentration 100 nM) was added and plates incubated for a further 72 hours. To determine the proportion of apoptotic cells Hoechst 33342 (final concentration 10 μg/mL) was added, then after 30 minutes incubation cells imaged and analyzed on an InCell high content imager.

Point of comparison: `CNC1CC=C(c2cnc(N)c3c(-c4ccc(CC(=O)Nc5cc(F)cc(C#N)c5)c5ccccc45)nc(C(C)C)n23)CC1` (stereo not drawn) [Example 67, 2-(4-(8-amino-3-isopropyl-5-(4-(methylamino)cyclohex-1-en-1-yl)imidazo[1,5-a]pyrazin-1-yl)naphthalen-1-yl)-N-(3-cyano-5-fluorophenyl)acetamide], IC50 210 nM. Against it:
- CCc1nc(-c2ccc(NC(=O)Nc3cccc(C(F)(F)F)c3)c3ccccc23)c2c(N)ncc(CN3CCNCC3)n12 [Example 20, 3-{4-[8-amino-3-ethyl-5-(piperazin-1-ylmethyl)imidazo[1,5-a]pyrazin-1-yl]naphthalen-1-yl}-1-[3-(trifluoromethyl)phenyl]urea] — 2.2-fold higher, 470 nM
- CC(C)c1nc(-c2ccc(NS(=O)(=O)Cc3ccccc3Cl)c(F)c2)c2c(N)ncc(CN3CCNCC3)n12 [Example 36, N-(4-(8-amino-3-isopropyl-5-(piperazin-1-ylmethyl)imidazo[1,5-a]pyrazin-1-yl)-2-fluorophenyl)-1-(2-chlorophenyl)methanesulfonamide] — 7.3-fold higher, 1530 nM
- Cc1cccc2nc(Cc3ccc(-c4nc(C(C)C)n5c(CN6CCNCC6)cnc(N)c45)c4ccccc34)[nH]c12 [Example 37, 3-isopropyl-1-(4-((7-methyl-1H-benzo[d]imidazol-2-yl)methyl)naphthalen-1-yl)-5-(piperazin-1-ylmethyl)imidazo[1,5-a]pyrazin-8-amine] — 1.5-fold higher, 320 nM
- Cc1nc(-c2ccc(NC(=O)Nc3cccc(C(F)(F)F)c3)c3ccccc23)c2c(N)ncc(C3CCCNC3)n12 (stereo not drawn) [Example 40, 3-{4-[8-amino-3-methyl-5-(piperidin-3-yl)imidazo[1,5-a]pyrazin-1-yl]naphthalen-1-yl}-1-[3-(trifluoromethyl)phenyl]urea] — within 1.5-fold, 280 nM
- CNC1CC=C(c2cnc(N)c3c(-c4ccc(CC(=O)Nc5ccccn5)c5ccccc45)nc(C(C)C)n23)CC1 (stereo not drawn) [Example 68, 2-(4-(8-amino-3-isopropyl-5-(4-(methylamino)cyclohex-1-en-1-yl)imidazo[1,5-a]pyrazin-1-yl)naphthalen-1-yl)-N-(pyridin-2-yl)acetamide] — 2-fold higher, 430 nM
- CNC1CC=C(c2cnc(N)c3c(-c4ccc(CC(=O)Nc5cncc(OC)c5)c5ccccc45)nc(C(C)C)n23)CC1 (stereo not drawn) [Example 69, 2-(4-(8-amino-3-isopropyl-5-(4-(methylamino)cyclohex-1-en-1-yl)imidazo[1,5-a]pyrazin-1-yl)naphthalen-1-yl)-N-(5-methoxypyridin-3-yl)acetamide] — 1.7-fold higher, 350 nM
- CNC1CC=C(c2cnc(N)c3c(-c4ccc(CC(=O)Nc5cccc(C#N)c5)c5ccccc45)nc(C(C)C)n23)CC1 (stereo not drawn) [Example 70, 2-(4-(8-amino-3-isopropyl-5-(4-(methylamino)cyclohex-1-en-1-yl)imidazo[1,5-a]pyrazin-1-yl)naphthalen-1-yl)-N-(3-cyanophenyl)acetamide] — 1.5-fold lower, 140 nM
- CNC1CC=C(c2cnc(N)c3c(-c4ccc(CC(=O)Nc5cccc(OC)c5)c5ccccc45)nc(C(C)C)n23)CC1 (stereo not drawn) [Example 71, 2-(4-(8-amino-3-isopropyl-5-(4-(methylamino)cyclohex-1-en-1-yl)imidazo[1,5-a]pyrazin-1-yl)naphthalen-1-yl)-N-(3-methoxyphenyl)acetamide] — 3.4-fold lower, 62 nM
- CNC1CC=C(c2cnc(N)c3c(-c4cccc5c(CC(=O)Nc6cccc(F)c6)cccc45)nc(C(C)C)n23)CC1 (stereo not drawn) [Example 81, 2-(5-(8-amino-3-isopropyl-5-(4-(methylamino)cyclohex-1-en-1-yl)imidazo[1,5-a]pyrazin-1-yl)naphthalen-1-yl)-N-(3-fluorophenyl)acetamide] — within 1.5-fold, 290 nM
- CNC1CC=C(c2cnc(N)c3c(-c4cccc5c(CC(=O)Nc6ccccc6)cccc45)nc(C(C)C)n23)CC1 (stereo not drawn) [Example 82, 2-(5-(8-amino-3-isopropyl-5-(4-(methylamino)cyclohex-1-en-1-yl)imidazo[1,5-a]pyrazin-1-yl)naphthalen-1-yl)-N-phenylacetamide] — 1.9-fold higher, 400 nM
- CNC1CC=C(c2cnc(N)c3c(-c4ccc(NC(=O)Nc5ccccc5)c5ccccc45)nc(C(C)C)n23)CC1 (stereo not drawn) [Example 121, 1-(4-(8-Amino-3-isopropyl-5-(4-(methylamino)cyclohex-1-en-1-yl)imidazo[1,5-a]pyrazin-1-yl)naphthalen-1-yl)-3-phenylurea] — 2.4-fold lower, 89 nM
- CNC1CC=C(c2cnc(N)c3c(-c4cccc5c(NC(=O)Nc6cccc(F)c6)cccc45)nc(C(C)C)n23)CC1 (stereo not drawn) [Example 123, 1-(5-(8-amino-3-isopropyl-5-(4-(methylamino)cyclohex-1-en-1-yl)imidazo[1,5-a]pyrazin-1-yl)naphthalen-1-yl)-3-(3-fluorophenyl)urea] — within 1.5-fold, 230 nM
- CNC1CC=C(c2cnc(N)c3c(-c4cccc5c(NC(=O)Nc6cccc(C(F)(F)F)c6)cccc45)nc(C(C)C)n23)CC1 (stereo not drawn) [Example 124, 1-(5-(8-amino-3-isopropyl-5-(4-(methylamino)cyclohex-1-en-1-yl)imidazo[1,5-a]pyrazin-1-yl)naphthalen-1-yl)-3-(3-(trifluoromethyl)phenyl)urea] — 2-fold higher, 430 nM
- CNC1CC=C(c2cnc(N)c3c(-c4ccc(NC(=O)Nc5ccc6c(c5)OCCO6)cc4F)nc(C(C)C)n23)CC1 (stereo not drawn) [Example 125, 1-(4-(8-amino-3-isopropyl-5-(4-(methylamino)cyclohex-1-en-1-yl)imidazo[1,5-a]pyrazin-1-yl)-3-fluorophenyl)-3-(2,3-dihydrobenzo[b][1,4]dioxin-6-yl)urea] — within 1.5-fold, 300 nM
- CCc1nc(-c2ccc(NC(=O)Nc3cccc(F)c3)cc2F)c2c(N)ncc(C3=CCC(NC)CC3)n12 (stereo not drawn) [Example 126, 1-(4-(8-amino-3-ethyl-5-(4-(methylamino)cyclohex-1-en-1-yl)imidazo[1,5-a]pyrazin-1-yl)-3-fluorophenyl)-3-(3-fluorophenyl)urea] — 2.1-fold higher, 450 nM
- CNC1CC=C(c2cnc(N)c3c(-c4ccc(NC(=O)Nc5cccc(F)c5)cc4F)nc(C(C)C)n23)CC1 (stereo not drawn) [Example 129, 1-(4-(8-amino-3-isopropyl-5-(4-(methylamino)cyclohex-1-en-1-yl)imidazo[1,5-a]pyrazin-1-yl)-3-fluorophenyl)-3-(3-fluorophenyl)urea] — within 1.5-fold, 280 nM
- CNC1CC=C(c2cnc(N)c3c(-c4ccc(NC(=O)Nc5ccccc5)cc4F)nc(C(C)C)n23)CC1 (stereo not drawn) [Example 130, 1-(4-(8-amino-3-isopropyl-5-(4-(methylamino)cyclohex-1-en-1-yl)imidazo[1,5-a]pyrazin-1-yl)-3-fluorophenyl)-3-phenylurea] — 2-fold higher, 410 nM
- CNC1CC=C(c2cnc(N)c3c(-c4ccc(NC(=O)NCc5ccccc5)c5ccccc45)nc(C(C)C)n23)CC1 (stereo not drawn) [Example 139, 1-(4-(8-amino-3-isopropyl-5-(4-(methylamino)cyclohex-1-en-1-yl)imidazo[1,5-a]pyrazin-1-yl)naphthalen-1-yl)-3-benzylurea] — 1.8-fold higher, 380 nM
- CNC1CC=C(c2cnc(N)c3c(-c4ccc(NC(=O)Nc5ccc6c(c5)OCCO6)c5ccccc45)nc(C(C)C)n23)CC1 (stereo not drawn) [Example 140, 1-(4-(8-amino-3-isopropyl-5-(4-(methylamino)cyclohex-1-en-1-yl)imidazo[1,5-a]pyrazin-1-yl)naphthalen-1-yl)-3-(2,3-dihydrobenzo[b][1,4]dioxin-6-yl)urea] — 2.7-fold lower, 78 nM
- CNC1CC=C(c2cnc(N)c3c(-c4ccc(NC(=O)Nc5cccc(OC)c5)c5ccccc45)nc(C(C)C)n23)CC1 (stereo not drawn) [Example 141, 1-(4-(8-amino-3-isopropyl-5-(4-(methylamino)cyclohex-1-en-1-yl)imidazo[1,5-a]pyrazin-1-yl)naphthalen-1-yl)-3-(3-methoxyphenyl)urea] — 3.6-fold lower, 59 nM
- CNC1CC=C(c2cnc(N)c3c(-c4ccc(NC(=O)Nc5cccc(C#N)c5)c5ccccc45)nc(C(C)C)n23)CC1 (stereo not drawn) [Example 142, 1-(4-(8-amino-3-isopropyl-5-(4-(methylamino)cyclohex-1-en-1-yl)imidazo[1,5-a]pyrazin-1-yl)naphthalen-1-yl)-3-(3-cyanophenyl)urea] — 2.2-fold lower, 94 nM
- CNC1CC=C(c2cnc(N)c3c(-c4ccc(NC(=O)Nc5ccc(OC)c(OC)c5)c5ccccc45)nc(C(C)C)n23)CC1 (stereo not drawn) [Example 143, 1-(4-(8-amino-3-isopropyl-5-(4-(methylamino)cyclohex-1-en-1-yl)imidazo[1,5-a]pyrazin-1-yl)naphthalen-1-yl)-3-(3,4-dimethoxyphenyl)urea] — the same, 210 nM
- CNC1CC=C(c2cnc(N)c3c(-c4ccc(NC(=O)Nc5ccncc5)c5ccccc45)nc(C(C)C)n23)CC1 (stereo not drawn) [Example 144, 1-(4-(8-amino-3-isopropyl-5-(4-(methylamino)cyclohex-1-en-1-yl)imidazo[1,5-a]pyrazin-1-yl)naphthalen-1-yl)-3-(pyridin-4-yl)urea] — 2.3-fold higher, 490 nM
- CNC1CC=C(c2cnc(N)c3c(-c4ccc(NC(=O)Nc5ccc(F)cc5)c5ccccc45)nc(C(C)C)n23)CC1 (stereo not drawn) [Example 145, 1-(4-(8-amino-3-isopropyl-5-(4-(methylamino)cyclohex-1-en-1-yl)imidazo[1,5-a]pyrazin-1-yl)naphthalen-1-yl)-3-(4-fluorophenyl)urea] — 2.8-fold lower, 74 nM
- CNC1CC=C(c2cnc(N)c3c(-c4ccc(NC(=O)Nc5cc(F)cc(OC)c5)cc4F)nc(C(C)C)n23)CC1 (stereo not drawn) [Example 146, 1-(4-(8-amino-3-isopropyl-5-(4-(methylamino)cyclohex-1-en-1-yl)imidazo[1,5-a]pyrazin-1-yl)-3-fluorophenyl)-3-(3-fluoro-5-methoxyphenyl)urea] — within 1.5-fold, 240 nM
- CNC1CC=C(c2cnc(N)c3c(-c4ccc(NC(=O)Nc5cccnc5)c5ccccc45)nc(C)n23)CC1 (stereo not drawn) [Example 147, 1-(4-(8-amino-3-methyl-5-(4-(methylamino)cyclohex-1-en-1-yl)imidazo[1,5-a]pyrazin-1-yl)naphthalen-1-yl)-3-(pyridin-3-yl)urea] — 15-fold higher, 3100 nM
